“And” between values parts separate entries of the source, which are not always exact repeats. Equal values may be shown once.
Assays:
SCD1 [1] = biological target: SCD1 (Rattus norvegicus (Rat), UniProt P07308); experiment: SCD1 enzymatic assay in rat liver microsomes (RLM); format: biochemical; conditions: rat liver microsomes; for inhibition at 1 µM / % Inh.@ 1 μM: 1 μM test compound; for inhibition at 1 µM: read-out: % Inh.@ 1 μM
Outline: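 Microsomes from livers of Sprague Dawley rats after fast/fat-free re-feeding cycles (10 μg per reaction) were incubated 2 h at room temperature with 20 μM stearoyl-CoA plus ^3H-stearoyl-CoA (2 μCi/mL), ATP, CoA, NADH and glutathione in 0.1 M K-phosphate, with compound. Reactions were acid-stopped and charcoal-treated; radioactivity was counted and fitted to a sigmoidal dose-response curve.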

SCD1 [2] = biological target: T1, SCD1 (Homo sapiens (Human), UniProt O00767); experiment: SCD1 14C-palmitate assay in A431 cells; format: cell-based; conditions: read-out: A431 cells 14C-PA IC50
Procedure: Human epithelial carcinoma A431 cells were seeded at 400,000 cells per well in 48-well tissue culture plate and treated with 2 cycles of fasting in low glucose medium (DMEM, Cellgro#10-014-CV, 1 g/L glucose, 2% Charcoal Filtered FBS) for 24 hours; and re-feeding with high glucose medium for 24 hours (DMEM, Cellgro#10-013-CM, 4.5 g/L glucose, 10% Charcoal Filtered FBS and 0.05 mg/mL Lilly Humulin R, Cat.#, HI-210). Prior to running the assay, the cells were washed twice with high glucose medium (400 μL), followed by addition of 250 μL assay buffer (DMEM, 4.5 g/L glucose, 0.05 mg/mL Human Insulin, 0.1% Fatty Acid Free BSA) to each well. Then, 100 μL of assay buffer containing 20 μM Palmitic Acid, 0.05 μCi ^14C Palmitic Acid (Perkin Elmer, NEC075H) and test compound (at selected concentration) was added to each well. The cells were then Incubated at 37° C. and 5% CO2 tissue culture incubator for 4 hours, followed by extensive washes with pre-chilled PBS. The cell plates were then frozen at −20° C. overnight. After thawing out the plates, 100 μL of 1N KOH was added to each well and the plates were incubated at 37° C. for 30 mins. Cell lysates were transferred to 1 mL Eppendorf tubes and incubated at 95° C. for 1 hour, followed by addition of 10 μL formic acid and 220 μL acetonitrile. The tubes were then centrifuged at 12,000 rpm and the supernatant dried under N2 for 2-3 hours. Dried extract was re-suspended in 60 μL hexane and loaded onto TLC plates (pre-coated with 10% AgNO3 in acetonitrile). The TLC plates were placed into glass running chamber containing 200 mL running solution (100 mL running solution: 92.5 mL chloroform, 6 mL methanol, 750 μL acetic acid, 750 μL dH2O). After running, the TLC plates were air dried and scanned on Bioscan AR-2000 for quantification of ^14C-palmitioleate and ^14C-palmitate peaks. Area under the curve of the peaks were used to calculate product/substrate ratio, an index of SCD1 activity.

SCD1 [3] = biological target: T1, SCD1; experiment: SCD1 13C-palmitic acid assay in A431 cells; format: cell-based; conditions: read-out: A431 cells 13C-PA IC50
Outline: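 A431 cells with 0.05 mg/mL human insulin in 0.1% fatty-acid-free BSA assay medium; 4 h incubation at 37 °C before KOH saponification with D4-palmitate internal standard.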

SCD1 (Rattus norvegicus (Rat), UniProt P07308), sequence (P07308 whole entry): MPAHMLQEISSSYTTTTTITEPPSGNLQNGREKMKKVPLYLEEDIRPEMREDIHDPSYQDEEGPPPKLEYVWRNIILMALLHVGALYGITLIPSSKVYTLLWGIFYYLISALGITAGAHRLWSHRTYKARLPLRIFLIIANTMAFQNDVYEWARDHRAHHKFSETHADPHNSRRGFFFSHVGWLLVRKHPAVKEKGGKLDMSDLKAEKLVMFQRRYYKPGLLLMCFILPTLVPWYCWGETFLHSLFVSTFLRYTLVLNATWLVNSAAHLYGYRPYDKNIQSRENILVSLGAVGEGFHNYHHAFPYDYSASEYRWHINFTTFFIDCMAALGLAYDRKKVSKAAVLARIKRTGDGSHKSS
T1 sequence (O00767 whole entry): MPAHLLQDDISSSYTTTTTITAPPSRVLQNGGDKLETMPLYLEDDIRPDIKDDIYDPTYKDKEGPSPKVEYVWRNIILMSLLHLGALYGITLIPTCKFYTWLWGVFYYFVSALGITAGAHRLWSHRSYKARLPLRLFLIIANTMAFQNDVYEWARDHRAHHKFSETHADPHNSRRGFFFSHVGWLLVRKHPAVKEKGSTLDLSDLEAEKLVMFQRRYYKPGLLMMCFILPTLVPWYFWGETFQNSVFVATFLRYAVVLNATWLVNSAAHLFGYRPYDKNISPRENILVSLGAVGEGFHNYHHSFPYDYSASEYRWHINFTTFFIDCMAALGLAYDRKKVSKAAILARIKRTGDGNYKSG

SMILES | inhibition at 1 µM (SCD1 [1]) | IC50 (SCD1 [1]) | IC50 (SCD1 [2]) | IC50 (SCD1 [3]) | % Inh.@ 1 μM (SCD1 [1])
Cc1cn(-c2ccc(N3CCC(N4CCc5ccccc54)CC3)nn2)cn1 [Compound #1, 1-(1-(6-(4-methyl-1H-imidazol-1-yl)pyridazin-3-yl)piperidin-4-yl)indoline] | 86% | 0.076 µM | 0.257 µM | – | –
Cn1cc(-c2ccc(N3CCC(c4noc5ccc(F)cc45)CC3)nn2)cn1 [Compound #3, 5-fluoro-3-(1-(6-(1-methyl-1 H-pyrazol-4-yl)pyridazin-3-yl)piperidin-4-yl)benzo[d]isoxazole] | 87% | 0.126 µM | 0.377 µM | – | –
Cc1cn(-c2ccc(N3CCC(N4CCc5ccc(F)cc54)CC3)nn2)cn1 [Compound #4, 6-fluoro-1-(1-(6-(4-methyl-1H-imidazol-1-yl)pyridazin-3-yl)piperidin-4-yl)indoline] | 95% | – | 0.068 µM | 0.009 µM | 93%
Cc1nsc(-c2ccc(N3CCC(c4noc5ccc(F)cc45)CC3)nn2)n1 [Compound #5, 5-fluoro-3-(1-(6-(3-methyl-1,2,4-thiadiazol-5-yl)pyridazin-3-yl)piperidin-4-yl)benzo[d]isoxazole] | 89% | 0.068 µM | 0.139 µM | – | –
Cc1nsc(-c2ccc(N3CCC(n4ccc5ccccc54)CC3)nn2)n1 [Compound #6, 5-(6-(4-(1H-indol-1-yl)piperidin-1-yl)pyridazin-3-yl)-3-methyl-1,2,4-thiadiazole] | 79% | 0.034 µM | 0.062 µM and 0.102 µM | – | –
Cc1nsc(-c2ccc(N3CCC(N4CCc5ccccc54)CC3)nn2)n1 [Compound #7, 5-(6-(4-(indolin-1-yl)piperidin-1-yl)pyridazin-3-yl)-3-methyl-1,2,4-thiadiazole] | 95% | 0.014 µM | 0.024 µM | – | –
Cn1cc(-c2ccc(N3CCC(n4ccc5ccccc54)CC3)nn2)cn1 [Compound #9, 1-(1-(6-(1-methyl-1H-pyrazol-4-yl)pyridazin-3-yl)piperidin-4-yl)-1H-indole] | 81% | 0.422 µM | 0.359 µM | – | –
Cn1cc(-c2ccc(N3CCC(N4CCc5ccccc54)CC3)nn2)cn1 [Compound #10, 1-(1-(6-(1-methyl-1H-pyrazol-4-yl)pyridazin-3-yl)piperidin-4-yl)indoline] | 84% | 0.394 µM | 0.383 µM | – | –
Cc1nsc(-c2ccc(N3CCC(N4CCc5ccc(F)cc54)CC3)nn2)n1 [Compound #12, 5-(6-(4-(6-fluoroindolin-1-yl)piperidin-1-yl)pyridazin-3-yl)-3-methyl-1,2,4-thiadiazole] | 95% | 0.011 µM | 0.362 µM | – | 97%
Fc1ccc2onc(C3CCN(c4ccc(-c5cccnc5)nn4)CC3)c2c1 [compound 8, 5-fluoro-3-(1-(6-(pyridin-3-yl)pyridazin-3-yl)piperidin-4-yl)benzo[d]isoxazote] | 86% | 0.165 µM | 0.577 µM | – | –
CCOCCn1cc(-c2ccc(N3CCC(c4noc5ccc(F)cc45)CC3)nn2)cn1 [compound 75, 3-(1-(6-(1-(2-ethoxyethyl)-1H-pyrazol-4-yl)pyridazin-3-yl)piperidin-4-yl)-5-fluorobenzo[d]isoxazole] | 98% | 0.021 µM | – | 0.081 µM | –
Fc1ccc2c(c1)N(C1CCN(c3ccc(-c4cn[nH]c4)nn3)CC1)CC2 [compound 77, 1-(1-(6-(1H-pyrazol-4-yl)pyridazin-3-yl)piperidin-4-yl)-6-fluoroindoline] | 95% | 0.021 µM | – | 0.02 µM | –
Cn1cc(-c2ccc(N3CCC(n4ncc5c(C(F)(F)F)cccc54)CC3)nn2)cn1 [compound 80, 1-(1-(6-(1-methyl-1H-pyrazol-4-yl)pyridazin-3-yl)piperidin-4-yl)-4-(trifluoromethyl)-1H-indazole] | 74% | 0.052 µM | – | 0.731 µM | –
Cn1cc(-c2ccc(N3CCC(n4ncc5ccc(C(F)(F)F)cc54)CC3)nn2)cn1 [compound 81, 1-(1-(6-(1-methyl-1H-pyrazol-4-yl)pyridazin-3-yl)piperidin-4-yl)-6-(trifluoromethyl)-1H-indazole] | 96% | 0.008 µM | – | 0.015 µM | –
OCCn1cc(-c2ccc(N3CCC(n4ncc5ccc(F)cc54)CC3)nn2)cn1 [compound 82, 2-(4-(6-(4-(6-fluoro-1H-indazo-1-yl)piperidin-1-yl)pyridazin-3-yl)-1H-pyrazol-1-yl)ethanol] | 99% | 0.053 µM | – | 0.096 µM | –
Cn1cc(-c2ccc(N3CCC(n4nc(Cl)c5ccccc54)CC3)nn2)cn1 [compound 83, 3-chloro-1-(1-(6-(1-methyl-1H-pyrazol-4-yl)pyridazin-3-yl)piperidin-4-yl)-1H-indazole] | 102% | 0.006 µM | – | 0.011 µM | –
Fc1ccc2onc(C3CCN(c4ccc(-n5ccnc5)nn4)CC3)c2c1 [compound 84, 3-(1-(6-(1H-imidazol-1-yl)pyridazin-3-yl)piperidin-4-yl)-5-fluorobenzo[d]isoxazole] | 85% | 0.156 µM | 0.157 µM | – | –
Cc1cn(-c2ccc(N3CCC(c4noc5ccc(F)cc45)CC3)nn2)cn1 [compound 85, 5-fluoro-3-(1-(6-(4-methyl-1H-imidazol-1-yl)pyridazin-3-yl)piperidin-4-yl)benzo[d]isoxazole] | 97% | 0.065 µM | 0.148 µM | – | –
Cc1cn(-c2ccc(N3CCC(n4ccc5ccccc54)CC3)nn2)cn1 [compound 88, 1-(1-(6-(4-methyl-1H-imidazol-1-yl)pyridazin-3-yl)piperidin-4-yl)-1H-indole] | 84% | 0.086 µM | 0.116 µM | – | –
Cc1cn(-c2ccc(N3CCC(c4noc5cc(F)ccc45)CC3)nn2)cn1 [compound 89, 6-fluoro-3-(1-(6-(4-methyl-1H-imidazol-1-yl)pyridazin-3-yl)piperidin-4-yl)benzo[d]isoxazole] | 88% | 0.257 µM | 0.691 µM | – | –
Cc1ccn(-c2ccc(N3CCC(c4noc5ccc(F)cc45)CC3)nn2)n1 [compound 92, 5-fluoro-3-(1-(6-(3-methyl-1H-pyrazol-1-yl)pyridazin-3-yl)piperidin-4-yl)benzo[d]isoxazole] | 79% | 0.126 µM | 0.063 µM | – | –
Cc1cnn(-c2ccc(N3CCC(c4noc5ccc(F)cc45)CC3)nn2)c1 [compound 94, 5-fluoro-3-(1-(6-(4-methyl-1H-pyrazol-1-yl)pyridazin-3-yl)piperidin-4-yl)benzo[d]isoxazote] | 96% | 0.012 µM | – | 0.04 µM | –
OCc1cnn(-c2ccc(N3CCC(c4noc5ccc(F)cc45)CC3)nn2)c1 [compound 95, (1-(6-(4-(5-fluorobenzo[d]isoxazol-3-yl)piperidin-1-yl)pyridazin-3-yl)-1H-pyrazol-4-yl)methanol] | 88% | 0.096 µM | – | 0.062 µM | –
COCc1cnn(-c2ccc(N3CCC(c4noc5ccc(F)cc45)CC3)nn2)c1 [compound 96, 5-fluoro-3-(1-(6-(4-(methoxymethyl)-1H-pyrazol-1-yl)pyridazin-3-yl)piperidin-4-yl)benzo[d]isoxazole] | 98% | 0.008 µM | – | 0.022 µM | –
CNCc1cnn(-c2ccc(N3CCC(c4noc5ccc(F)cc45)CC3)nn2)c1 [compound 97, 1-(1-(6-(4-(5-fluorobenzo[d]isoxazol-3-yl)piperidin-1-yl)pyridazin-3-yl)-1H-pyrazol-4-yl)-N-methylmethanamine] | 11% | – | – | > 1 µM | –
OCCc1cnn(-c2ccc(N3CCC(c4noc5ccc(F)cc45)CC3)nn2)c1 [compound 98, 2-(1-(6-(4-(5-fluorobenzo[d]isoxazol-3-yl)piperidin-1-yl)pyridazin-3-yl)-1H-pyrazol-4-yl)ethanol] | 88% | 0.06 µM | – | 0.012 µM | –

From patent US9102669B2, “Substituted piperidinyl-pyridazinyl derivatives useful as SCD 1 inhibitors” (Janssen Pharmaceutica NV, priority 2011, dated 2015)
